Assay results published in the NIST ThermoML archive (doi:10.1021/je901020a).

Tests used:
[1] = refractive index (Na D-line) (dimensionless); xn = mol fraction of the nth substance listed; conditions: 101 kPa, Liquid, Standard Abbe refractometry
[2] = xn = mol fraction of the nth substance listed; conditions: 101 kPa, Liquid; for speed of sound: Pulse-echo method

Cc1cc(C)cc(C)c1 [1,3,5-trimethylbenzene] + C1CCCCC1
Conditions | mass density, [2] [kg/m3] | refractive index, [1] | speed of sound, [2] [m/s]
298.15 K, x2 = 0 | 861.1 | 1.49693 | 1336
298.15 K, x2 = 0.0459 | 857.3 | 1.4939 | 1331
298.15 K, x2 = 0.0956 | 853.1 | 1.49061 | 1326
298.15 K, x2 = 0.193 | 844.8 | 1.48396 | 1315
298.15 K, x2 = 0.2937 | 835.9 | 1.47698 | 1304
298.15 K, x2 = 0.3878 | 827.5 | 1.46995 | 1294
298.15 K, x2 = 0.4953 | 817.9 | 1.46201 | 1283
298.15 K, x2 = 0.598 | 808.6 | 1.45441 | 1274
298.15 K, x2 = 0.6944 | 799.7 | 1.44675 | 1265
298.15 K, x2 = 0.796 | 790.3 | 1.43896 | 1258
298.15 K, x2 = 0.8942 | 781.5 | 1.43119 | 1252
298.15 K, x2 = 0.9515 | 776.9 | 1.42697 | 1250
313.15 K, x2 = 0 | 848.8 | 1.48923 | 1277
313.15 K, x2 = 0.0488 | 844.8 | 1.48628 | 1271
313.15 K, x2 = 0.102 | 840.2 | 1.48264 | 1265
313.15 K, x2 = 0.2008 | 831.7 | 1.47604 | 1253
313.15 K, x2 = 0.3053 | 822.6 | 1.4688 | 1241
313.15 K, x2 = 0.416 | 812.4 | 1.46071 | 1229
313.15 K, x2 = 0.5105 | 803.5 | 1.4534 | 1219
313.15 K, x2 = 0.6084 | 794.3 | 1.44576 | 1209
313.15 K, x2 = 0.7068 | 785.2 | 1.43825 | 1200
313.15 K, x2 = 0.8092 | 775.9 | 1.43012 | 1191
313.15 K, x2 = 0.911 | 766.9 | 1.4222 | 1185
313.15 K, x2 = 0.9612 | 762.7 | 1.41833 | 1183
